Results taken from patent US7144982B2, “Polypeptides with therapeutic activity and methods of use” (University of Minnesota, priority 2000, dated 2006).
Like-named read-outs stand apart in the source and are kept apart here.

B1: B/PI: 55 kD protein B/PI, bactericidal/permeability increasing protein (protein, UniProt P17213 32-487, looked up)
Bactericidal …: VNPGVVVRISQKGLDYASQQGTAALQKELKRIKIPDYSDSFKIKHLGKGHYSFYSMDIREFQLPSSQISMVPNVGLKFSISNANIKISGKWKAQKRFLKMSGNFDLSIEGMSISADLKLGSNPTSGKPTITCSSCSSHINSVHVHISKSKVGWLIQLFHKKIESALRNKMNSQVCEKVTNSVSSELQPYFQTLPVMTKIDSVAGINYGLVAPPATTAETLDVQMKGEFYSENHHNPPPFAPPVMEFPAAHDRMVYLGLSDYFFNTAGLVYQEAGVLKMTLRDDMIPKESKFRLTTKFFGTFLPEVAKKFPNMKIQIHVSASTPPHLSVQPTGLTFYPAVDVQAFAVLPNSSLASLFLIGMHTTGSMEVSAESNRLVGELKLDRLLLELKHSNIGPFPVELLQDIMNYIVPILVLPRVNEKLQKGFPLPTPARVQLYNVVLQPHQNFLLFGADVVYK

How the values were obtained:
[1] = test system: Pseudomonas aeruginosa type 1; experiment: Bactericidal assay, P. aeruginosa (P.a.); format: cell-based; details: Table 1; P. aeruginosa; SD about ±30%
Excerpt: (§1) Pseudomonas aeruginosa type 1 is a clinical, smooth strain isolate serotyped by using the scheme of Homma, Japan. J. Exp. Med. 46, 329–336 (1976) and maintained in the lab by monthly transfer on blood agar plates. E. coli J96, IA2, and H5 are smooth strain, uropathogenic clinical isolates kindly maintained and provided by J. R. Johnson and described in Johnson et al., J. Infect. Disease 173, 920–926 (1996) for J96 and IA2 and in Johnson et al., J. Infect. Disease 173, 746–749 (1996) for H5. J5 is an E. coli rough strain initially referenced by G. R. Siber and discussed in Warren et al., Infect. Immunity 55, 1668–1673 (1987) and is analogous to the smooth strain E. coli 0111:B4 used in the BioWhittaker LAL endotoxin detection and quantitation kit described below. Gram-positive MN8 and MNHO are two patient isolates of Staphylococcus aureus, which were kindly provided by P. M. Schlievert and described in Bohach et al., Rev. Infect. Diseases 11, 75–82 (1989) for MNHO and in Schlievert et al., J. Infect. Diseases 147, 236–242 (1983) for MN8. All cultures are maintained on nutrient agar plates.
(§2) Pyrogen-free solutions were used throughout the assay. Log phase bacteria were obtained by transferring an overnight culture or scraping crystals off −85° C. glycerol stocks of overnight cultures. Bacteria were washed and resuspended in 0.9% sodium chloride with adjustment to an optical density at 650 nm which yields 3×10^8 CFU/ml. Bacteria were then diluted 1:10 in 0.08 M citrate phosphate buffer, pH 7.0 (prepared by mixing 0.08 M citric acid with 0.08 M dibasic sodium phosphate). Bacteria (0.15 ml) were incubated with peptide in a final volume of 1.0 ml of buffer. The assay was done in 17×100 polypropylene tubes in a reciprocal water bath shaker at 37° C. for 30 minutes. Following this 30 minute (min) incubation, 10-fold dilutions were made in 0.9% sodium chloride. Dilutions were done to 10^−4 and 20 μl of each dilution was streaked across an agar plate. Gram-positive organisms were plated on nutrient agar plates containing 2% agar and Gram-negative organisms were plated on MacConkey agar (2%). Plates were incubated overnight at 37° C. and counted the next morning. The dilution containing 10–100 bacteria was counted and the number multiplied by 50 to adjust all counts to the number bacteria killed per milliliter. Peptide concentrations were converted to logarithm base ten and graphed. Bactericidal activity was determined by dose response where LD50 values were determined by best fits of a sigmoidal curve to the dose response data.

E. coli J96 = format: cell-based; details: Table 1; E. coli J96; SD about ±30%
Excerpt: as §1
as §2, with “The assay was done in 17×100 polypropylene tubes in a reciprocal water bath shaker at 37° C. for 30 minutes. Following this 30 minute (min) incubation, 10-fold dilutions were made in 0.9% sodium chloride. Dilutions were done to 10^−4 and 20 μl of each dilution was streaked across an agar plate. Gram-positive organisms were plated on nutrient agar plates containing 2% agar and Gram-negative organisms were plated on MacConkey agar (2%).” left out, “Peptide concentrations were converted to logarithm base ten and graphed.” left out

E. coli IA2 = experiment: Bactericidal assay, smooth strain E. coli IA2; format: cell-based; details: Table 1, SD about ±30%
Excerpt: as §1, with “Diseases 11, 75–82 (1989) for MNHO and in Schlievert et al., J. Infect. Diseases 147, 236–242 (1983) for MN8. All cultures are maintained on nutrient agar plates.” left out
(§3) Pyrogen-free solutions were used throughout the assay. […] Plates were incubated overnight at 37° C. and counted the next morning. The dilution containing 10–100 bacteria was counted and the number multiplied by 50 to adjust all counts to the number bacteria killed per milliliter. […] Bactericidal activity was determined by dose response where LD50 values were determined by best fits of a sigmoidal curve to the dose response data.

E. coli 055:B5 LPS = experiment: Limulus amoebocyte lysate assay for LPS neutralization; format: biochemical
Excerpt: The ability of synthetic peptides to neutralize endotoxin was detected using the chromogenic QCL-1000 kit from BioWhittaker, Inc. (Walkersville, Md.) as described in their protocol. This method is quantitative for Gram-negative bacterial endotoxin (lipopolysaccharide, LPS). In the Limulus amebocyte lysate (LAL) assay, peptides that are active inhibit the LPS-mediated activation of a proenzyme (Young et al., J. Clin. Invest. 51, 1790–1797 (1972)) whose active form would release p-nitroaniline (pNA) from a colorless synthetic substrate (Ac-Ile-Glu-Ala-Arg-pNA), producing a yellow color (pNA) whose absorption is monitored spectrophotometrically at 405–410 nm. The initial rate of enzyme activation is proportional to the concentration of endotoxin present. The concentration of peptide required to bind to LPS and therefore to inhibit the Limulus amoebocyte lysate driven by 0.04 unit (or 0.01 ng) of E. coli 055:B5 LPS (from SIGMA) was determined by dose response.

E. coli H5 = experiment: Bactericidal assay, smooth strain E. coli H5; format: cell-based; details: Table 1, SD about ±30%
Excerpt: as §1, with “Diseases 11, 75–82 (1989) for MNHO and in Schlievert et al., J. Infect. Diseases 147, 236–242 (1983) for MN8. All cultures are maintained on nutrient agar plates.” left out
as §3

[2] = test system: Staphylococcus aureus MN8; experiment: Bactericidal assay, Gram-positive S. aureus MN8; format: cell-based; details: Table 1, SD about ±30%
Excerpt: as §1, with “Diseases 11, 75–82 (1989) for MNHO and in Schlievert et al., J. Infect. Diseases 147, 236–242 (1983) for MN8. All cultures are maintained on nutrient agar plates.” left out
as §3

E. coli J5 = experiment: Bactericidal assay, rough strain E. coli J5; format: cell-based; details: Table 1; E. coli J5; SD about ±30%
Excerpt: as §1, §2

[3] = test system: Staphylococcus aureus MNHO; experiment: Bactericidal assay, Gram-positive S. aureus MNHO; format: cell-based; details: Table 1; S. aureus MNHO; SD about ±30%
Excerpt: as §1, §2

bacteria = details: Mayo et al. 1998; cited from earlier work
P. aeruginosa = details: against P. aeruginosa; Lee et al. 1989; cited from earlier work
[4] = literature value; read-out: LPS binding activity (IC50); cited from earlier work
[5] = Table 1, SD about ±30%, read-out: LPS effect, IC50 for neutralization of LPS

Molecule	LD50 bactericidal activity, Gram neg. smooth P.a. [1]	LD50 bactericidal activity, Gram neg. smooth J96 (E. coli J96)	LD50 bactericidal activity, Gram neg. smooth IA2 (E. coli IA2)	IC50 (E. coli 055:B5 LPS; [5]) [nM]	LD50 bactericidal activity, Gram neg. smooth H5 (E. coli H5)	LD50 bactericidal activity, Gram-positive MN8 [2]	LD50 bactericidal activity, Gram neg. rough J5 (E. coli J5)	LD50 bactericidal activity, Gram-positive MNHO [3]	bactericidal concentration range (bacteria)	IC50 (E. coli 055:B5 LPS; read-out: IC50 LPS neutralization) [nM]	lethal concentration (P. aeruginosa) [µM]	IC50 [4] [nM]
BG-22: peptide 28 mer having the amino acid sequence from the β-sheet domain of bactericidal/permeability increasing (B/PI) protein (residues 82–108) (NANIKISGKWKAQKRFLKMSGNFDLSI; UniProt P17213 113-139, looked up, fragment) [reference compound]	0.05 10^−6 M	0.52 10^−6 M	0.32 10^−6 M	5000	0.71 10^−6 M	0.5 10^−6 M	0.09 10^−6 M	0.63 10^−6 M				
SIQKLNVSMKLFRKQAKWKIIVKLNDGRELSLD [βpep-19, reference compound]	0.03 10^−6 M	0.1 10^−6 M	0.06 10^−6 M	2000	0.71 10^−6 M	0.25 10^−6 M	0.01 10^−6 M	0.16 10^−6 M	~10^−8 M	~2000		
cecropin P1											6	
B1												20
